Experimental data taken from the supplement of paper PMC11451515.

Experiments:
Settings in all cases: 48 h
SEM cells [1] = experiment: AUC of viability dose-response curve (% viability x log10 dose units); higher = less sensitive
How it was run: (§1)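 Leukemia cells adapted to each medium were seeded in 1536-well plates (500 or 1000 cells/well). They were dosed with library compounds in DMSO at 11 threefold doses, 47 μM to 0.79 nM, for 48 h at 37°C. CellTiter-Glo One luminescence was normalised per plate to DMSO and cell-free wells. Area under the curve was integrated by trapezoidal rule over log10 doses on a four-parameter log-logistic fit; curves exceeding full viability were scaled and curves failing quality control removed.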

NOMO1 [2] = experiment: as above
How it was run: as §1

P12-Ichikawa [3] = experiment: as above
How it was run: as §1

SEM cells [4] = experiment: cell viability relative to DMSO control; higher = less cytotoxic
How it was run: (§2)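 Viability is expressed as a percentage of DMSO wells within each plate, and cell-free wells serve as background. Seeding densities in the 1536-well plates (5 μl) were 500 cells/well for NOMO1 or SEM leukemia cells and 1000 cells/well for P12-Ichikawa. Each line was adapted for at least four passages in each medium. Library compounds in DMSO were pin-dosed at 47 μM to 0.79 nM (11 points, threefold), and CellTiter-Glo One luminescence was read after 48 h at 37°C.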

NOMO1 [5] = experiment: as above
How it was run: as §2

P12-Ichikawa [6] = experiment: as above
How it was run: as §2

O=C(O)[C@H](Cc1c[nH]c2ccccc12)N1C(=O)c2ccccc2C1=O
AUC of viability dose-response curve
Settings | NOMO1 [2] | P12-Ichikawa [3] | SEM cells [1]
HPLM + 10% dialyzed FBS | 440 | 474 | 445
RPMI 5 mM glucose + 10% FBS | 426 | 462 | 440
RPMI 5 mM glucose + 10% dialyzed FBS | 470 | 460 | 405

cell viability [%]
Settings | NOMO1 [5] | P12-Ichikawa [6] | SEM cells [4]
HPLM + 10% dialyzed FBS, 0.000781 µM | 96.1 | 98.3 | 85.2
HPLM + 10% dialyzed FBS, 0.00234 µM | 107 | 109 | 63.5
HPLM + 10% dialyzed FBS, 0.00702 µM | 103 | 104 | 96.4
HPLM + 10% dialyzed FBS, 0.0211 µM | 99.4 | 106 | 92.4
HPLM + 10% dialyzed FBS, 0.0632 µM | 110 | 99.5 | 99.3
HPLM + 10% dialyzed FBS, 0.19 µM | 91.5 | 99.8 | 102
HPLM + 10% dialyzed FBS, 0.569 µM | 90.8 | 105 | 91.7
HPLM + 10% dialyzed FBS, 1.71 µM | 103 | 110 | 97.8
HPLM + 10% dialyzed FBS, 5.12 µM | 119 | 103 | 105
HPLM + 10% dialyzed FBS, 15.4 µM | 99.6 | 102 | 99.4
HPLM + 10% dialyzed FBS, 46.1 µM | 117 | 99.3 | 83.8
RPMI 5 mM glucose + 10% FBS, 0.000781 µM | 89.8 | 89.6 | 99.1
RPMI 5 mM glucose + 10% FBS, 0.00234 µM | 83.3 | 91.9 | 52.9
RPMI 5 mM glucose + 10% FBS, 0.00702 µM | 97 | 91.3 | 105
RPMI 5 mM glucose + 10% FBS, 0.0211 µM | 89.1 | 93.4 | 112
RPMI 5 mM glucose + 10% FBS, 0.0632 µM | 87.9 | 98.3 | 100
RPMI 5 mM glucose + 10% FBS, 0.19 µM | 80.8 | 103 | 108
RPMI 5 mM glucose + 10% FBS, 0.569 µM | 89.3 | 103 | 90.7
RPMI 5 mM glucose + 10% FBS, 1.71 µM | 97.1 | 97 | 93.3
RPMI 5 mM glucose + 10% FBS, 5.12 µM | 90.4 | 101 | 92
RPMI 5 mM glucose + 10% FBS, 15.4 µM | 92.3 | 101 | 84.8
RPMI 5 mM glucose + 10% FBS, 46.1 µM | 86.1 | 94.3 | 77.4
RPMI 5 mM glucose + 10% dialyzed FBS, 0.000781 µM | 92.5 | 91.2 | 89.8
RPMI 5 mM glucose + 10% dialyzed FBS, 0.00234 µM | 99.1 | 90.5 | 41.9
RPMI 5 mM glucose + 10% dialyzed FBS, 0.00702 µM | 104 | 91.8 | 96.4
RPMI 5 mM glucose + 10% dialyzed FBS, 0.0211 µM | 101 | 102 | 94.8
RPMI 5 mM glucose + 10% dialyzed FBS, 0.0632 µM | 98.7 | 94.4 | 83.8
RPMI 5 mM glucose + 10% dialyzed FBS, 0.19 µM | 94.1 | 99.5 | 87.4
RPMI 5 mM glucose + 10% dialyzed FBS, 0.569 µM | 100 | 99 | 99.3
RPMI 5 mM glucose + 10% dialyzed FBS, 1.71 µM | 101 | 105 | 84.7
RPMI 5 mM glucose + 10% dialyzed FBS, 5.12 µM | 103 | 95 | 97.1
RPMI 5 mM glucose + 10% dialyzed FBS, 15.4 µM | 99.6 | 98.6 | 81.9
RPMI 5 mM glucose + 10% dialyzed FBS, 46.1 µM | 83.3 | 92.2 | 68

COc1cc2c(Nc3ccc(NC(=O)c4ccccc4)cc3)ncnc2cc1OCCCN1CCOCC1
AUC of viability dose-response curve
Settings | NOMO1 [2] | P12-Ichikawa [3] | SEM cells [1]
HPLM + 10% dialyzed FBS | 456 | 383 | 396
RPMI 5 mM glucose + 10% FBS | 417 | 390 | 389
RPMI 5 mM glucose + 10% dialyzed FBS | 425 | 386 | 385

cell viability [%]
Settings | NOMO1 [5] | P12-Ichikawa [6] | SEM cells [4]
HPLM + 10% dialyzed FBS, 0.000781 µM | 122 | 116 | 105
HPLM + 10% dialyzed FBS, 0.00234 µM | 124 | 123 | 119
HPLM + 10% dialyzed FBS, 0.00702 µM | 128 | 122 | 124
HPLM + 10% dialyzed FBS, 0.0211 µM | 126 | 125 | 140
HPLM + 10% dialyzed FBS, 0.0632 µM | 137 | 131 | 130
HPLM + 10% dialyzed FBS, 0.19 µM | 133 | 133 | 133
HPLM + 10% dialyzed FBS, 0.569 µM | 144 | 135 | 123
HPLM + 10% dialyzed FBS, 1.71 µM | 122 | 125 | 105
HPLM + 10% dialyzed FBS, 5.12 µM | 103 | 45 | 56.8
HPLM + 10% dialyzed FBS, 15.4 µM | 114 | 15 | 44.5
HPLM + 10% dialyzed FBS, 46.1 µM | 115 | 15.6 | 40.6
RPMI 5 mM glucose + 10% FBS, 0.000781 µM | – | – | 122
RPMI 5 mM glucose + 10% FBS, 0.00234 µM | – | – | 127
RPMI 5 mM glucose + 10% FBS, 0.00702 µM | – | – | 112
RPMI 5 mM glucose + 10% FBS, 0.0211 µM | – | – | 140
RPMI 5 mM glucose + 10% FBS, 0.0632 µM | – | – | 136
RPMI 5 mM glucose + 10% FBS, 0.19 µM | – | – | 124
RPMI 5 mM glucose + 10% FBS, 0.569 µM | – | – | 144
RPMI 5 mM glucose + 10% FBS, 1.71 µM | – | – | 122
RPMI 5 mM glucose + 10% FBS, 5.12 µM | – | – | 55
RPMI 5 mM glucose + 10% FBS, 15.4 µM | – | – | 25.9
RPMI 5 mM glucose + 10% FBS, 46.1 µM | – | – | 22.4

CC(C)(C)OC(=O)CN(Cc1ccc(Cl)cc1)Cc1ccc([N+](=O)[O-])s1
AUC of viability dose-response curve
Settings | NOMO1 [2] | P12-Ichikawa [3] | SEM cells [1]
HPLM + 10% dialyzed FBS | 441 | 456 | 449
RPMI 5 mM glucose + 10% FBS | 436 | 443 | 454
RPMI 5 mM glucose + 10% dialyzed FBS | 464 | 429 | 436

cell viability [%]
Settings | NOMO1 [5] | P12-Ichikawa [6] | SEM cells [4]
HPLM + 10% dialyzed FBS, 0.000781 µM | 109 | 99.7 | 110
HPLM + 10% dialyzed FBS, 0.00234 µM | 95.6 | 107 | 111
HPLM + 10% dialyzed FBS, 0.00702 µM | 107 | 107 | 101
HPLM + 10% dialyzed FBS, 0.0211 µM | 96.8 | 101 | 110
HPLM + 10% dialyzed FBS, 0.0632 µM | 101 | 99 | 110
HPLM + 10% dialyzed FBS, 0.19 µM | 99.6 | 98.3 | 115
HPLM + 10% dialyzed FBS, 0.569 µM | 91.1 | 96.2 | 109
HPLM + 10% dialyzed FBS, 1.71 µM | 87.5 | 96.5 | 114
HPLM + 10% dialyzed FBS, 5.12 µM | 92.7 | 91.6 | 92.8
HPLM + 10% dialyzed FBS, 15.4 µM | 75.3 | 93 | 91.5
HPLM + 10% dialyzed FBS, 46.1 µM | 40.7 | 73.6 | 43.7
RPMI 5 mM glucose + 10% FBS, 0.000781 µM | 88.9 | 92.8 | 98.2
RPMI 5 mM glucose + 10% FBS, 0.00234 µM | 98.6 | 99.2 | 103
RPMI 5 mM glucose + 10% FBS, 0.00702 µM | 95.4 | 89 | 87.5
RPMI 5 mM glucose + 10% FBS, 0.0211 µM | 87 | 97.1 | 94.4
RPMI 5 mM glucose + 10% FBS, 0.0632 µM | 93.5 | 88.2 | 103
RPMI 5 mM glucose + 10% FBS, 0.19 µM | 105 | 99.2 | 108
RPMI 5 mM glucose + 10% FBS, 0.569 µM | 96.3 | 93.3 | 90.2
RPMI 5 mM glucose + 10% FBS, 1.71 µM | 92.9 | 99.9 | 110
RPMI 5 mM glucose + 10% FBS, 5.12 µM | 89.7 | 92.8 | 99.9
RPMI 5 mM glucose + 10% FBS, 15.4 µM | 81.3 | 88.9 | 95.2
RPMI 5 mM glucose + 10% FBS, 46.1 µM | 66.5 | 69.3 | 26.1
RPMI 5 mM glucose + 10% dialyzed FBS, 0.000781 µM | 107 | 99 | 90.7
RPMI 5 mM glucose + 10% dialyzed FBS, 0.00234 µM | 97.7 | 90.7 | 97.2
RPMI 5 mM glucose + 10% dialyzed FBS, 0.00702 µM | 95.7 | 95.9 | 94.3
RPMI 5 mM glucose + 10% dialyzed FBS, 0.0211 µM | 96.6 | 92 | 99.8
RPMI 5 mM glucose + 10% dialyzed FBS, 0.0632 µM | 107 | 94.9 | 92.8
RPMI 5 mM glucose + 10% dialyzed FBS, 0.19 µM | 94 | 92 | 99.1
RPMI 5 mM glucose + 10% dialyzed FBS, 0.569 µM | 103 | 87.9 | 97.3
RPMI 5 mM glucose + 10% dialyzed FBS, 1.71 µM | 102 | 86.6 | 94
RPMI 5 mM glucose + 10% dialyzed FBS, 5.12 µM | 95.5 | 82.4 | 91.2
RPMI 5 mM glucose + 10% dialyzed FBS, 15.4 µM | 87 | 91.2 | 95.1
RPMI 5 mM glucose + 10% dialyzed FBS, 46.1 µM | 80.1 | 62.6 | 21.1
